Test results as given in article PMC8755562 (European Journal of Medicinal Chemistry, 2022).

Molecular target: recombinant human (rh)ACE2 (Homo sapiens, UniProt Q9BYF1)
Assay: fluorogenic exopeptidase assay
Assay type: biochemical

recombinant human (rh)ACE2, sequence (Q9BYF1 18-740 limits assumed): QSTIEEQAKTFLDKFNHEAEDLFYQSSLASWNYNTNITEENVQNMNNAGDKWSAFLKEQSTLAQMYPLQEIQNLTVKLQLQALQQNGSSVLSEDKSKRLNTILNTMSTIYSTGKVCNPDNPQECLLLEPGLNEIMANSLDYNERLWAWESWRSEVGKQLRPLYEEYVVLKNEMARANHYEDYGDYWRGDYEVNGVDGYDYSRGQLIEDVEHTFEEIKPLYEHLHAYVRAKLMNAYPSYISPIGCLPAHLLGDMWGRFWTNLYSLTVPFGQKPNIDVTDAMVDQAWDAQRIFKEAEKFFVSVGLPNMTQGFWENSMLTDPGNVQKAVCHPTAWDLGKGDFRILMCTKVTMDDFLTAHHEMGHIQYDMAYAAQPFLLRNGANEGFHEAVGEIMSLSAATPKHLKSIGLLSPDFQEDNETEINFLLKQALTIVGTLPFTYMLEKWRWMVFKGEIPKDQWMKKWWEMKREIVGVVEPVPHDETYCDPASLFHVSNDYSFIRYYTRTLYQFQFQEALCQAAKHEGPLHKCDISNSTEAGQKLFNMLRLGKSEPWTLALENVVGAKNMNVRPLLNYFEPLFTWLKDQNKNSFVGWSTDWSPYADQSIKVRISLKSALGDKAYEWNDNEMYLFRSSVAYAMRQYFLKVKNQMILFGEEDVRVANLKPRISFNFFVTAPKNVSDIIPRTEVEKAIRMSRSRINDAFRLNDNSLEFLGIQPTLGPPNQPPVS

| Compound | IC50 |
| --- | --- |
| CC(C)C[C@H](N[C@@H](Cc1cncn1Cc1cc(Cl)cc(Cl)c1)C(=O)O)C(=O)O [MLN-4760] | 0.0297 µM |
| CC(C)C[C@H](N[C@@H](Cc1cncn1Cc1ccc(N)cc1)C(=O)O)C(=O)O [compound 1, (S)-2-(((S)-2-(1-(4-aminobenzyl)-1H-imidazol-5-yl)-1-carboxyethyl)amino)-4-methylpentanoic acid] | 0.0113 µM |
